# Test results reported in patent publication US4727086A, “Certain anti-hypertensive 2,3-dihydrobenzofuran compounds” (Adir et Compagnie, priority 1985, dated 1988).
# Legend:
# [1] = tested on: coronary artery of the dog; assay: Contraction-inhibiting activity on the coronary artery of the dog (in vitro); type: cell-based; details: Canis lupus familiaris, 0.25 h, contraction induced by 100 mM potassium ions, reactivation with 10 and 20 mM calcium ions, 15-minute action, read-out: ED50 (dose capable of inhibiting 50% of the maximum contraction)
# Description: Assessment of the Contraction-Inhibiting Activity on the Coronary Artery of the Dog
# The inhibiting activity on contraction induced by calcium ions was assessed in vitro on the coronary artery of the dog according to the method described by Godfraind and Miller in Circ. Res. (1983) 52, No. 2, pp. 81-91. Contraction was induced by a solution containing 100 millimoles of potassium ions per liter. The compounds to be examined were then introduced in cumulative doses and after a 15-minute period of action the preparation was reactivated with solutions having a calcium ion concentration of 10 and 20 mM. The dose capable of inhibiting 50% (ED50) of the maximum contraction was assessed.
# mongrel dogs = assay: Haemodynamic effects in vivo in anaesthetised dogs
# Description: Haemodynamic Effects In Vivo
# The haemodynamic effects were assessed in mongrel dogs weighing from 25 to 30 kg which had been anaesthetised with sodium phenobarbital, had undergone a thoractomy at the 5th left intercostal space and carried electromagnetic rings at the level of the circumflex branch of the left coronary artery and at the level of the ascending aorta. The maximum bradycardic effect (E.B. max.), the mean coronary resistances (C.V.R.M.), the coronary output (C.B.F.M.), and the arterial pressure (P.A.) were measured after the intravenous injection of a dose of 300 μg/kg and 1000 μg/kg of the compounds of Examples 1 and 13.
# Table 5 summarises the various results which are expressed as percentage increases (+%) or percentage decreases (-%) in the values in relation to those observed before treatment.
SMILES,IC50 [1] [µM],also measured
"COc1ccc(CCN(C)CCCC2(c3ccccc3)COc3ccc(Cl)cc32)cc1OC (centres unmarked) [Example 4, 5-chloro-3-phenyl-3-[3-(N-(3,4-dimethoxyphenethyl)-N-methylamino)-propyl]-2,3-dihydrobenzofuran]",30,
"COc1ccc2c(c1)C(CCCN(C)C1Cc3cc(OC)c(OC)cc3C1)(c1ccccc1)CO2 (centres unmarked) [Example 6, 5-methoxy-3-phenyl-3-[3-(N-(5,6-dimethoxy-2-indanyl)-N-methylamino)-propyl]-2,3-dihydrobenzofuran]",10,
"CCN(CC)CCCC1(c2ccccc2)COc2ccc(OC)cc21 (centres unmarked) [Example 10, 5-methoxy-3-phenyl-3-[3-(N-diethylamino)-propyl]-2,3-dihydrobenzofuran]",6.1,
"COc1ccc2c(c1)C(CCCN1CCN(C)CC1)(c1ccccc1)CO2 (centres unmarked) [Example 9, 5-methoxy-3-phenyl-3-[3-(4-methyl-1-piperazinyl)-propyl]-2,3-dihydrobenzofuran]",35,
"COc1ccc2c(c1)C(CCCN1CCc3cc(OC)c(OC)cc3C1)(c1ccccc1)CO2 (centres unmarked) [Example 7, 5-methoxy-3-phenyl-3-[3-(6,7-dimethoxy-1,2,3,4-tetrahydro-2-isoquinolyl)-propyl]-2,3-dihydrobenzofuran]",6.3,
"COc1cccc(N2CCN(CCCC3(c4ccccc4)COc4ccccc43)CC2)c1 (centres unmarked) [Example 16, 3-phenyl-3-[3-(4-(3-methoxyphenyl)-1-piperazinyl)-propyl]-2,3-dihydrobenzofuran]",9,
"c1ccc(C2(CCCN3CCc4ccsc4C3)COc3ccccc32)cc1 (centres unmarked) [Example 14, 3-phenyl-3-[3-(1,2,6,7-tetrahydro-(2,3-c)-thieno-1-pyridinyl)-propyl]-2,3-dihydrobenzofuran]",9,
"COc1ccc2c(c1)C(CCCN(C)CCc1ccc(OC)c(OC)c1)(c1ccccc1)CO2.O=P(O)(O)O (centres unmarked) [Example 1, 5-methoxy-3-phenyl-3-[3-(N-(3,4-dimethoxyphenethyl)-N-methylamino)-propyl]-2,3-dihydrobenzofuran phosphate]",1.7,"CBFM (coronary output), % change vs before treatment (mongrel dogs; 300 μg/kg intravenous): +51%; CRVM (mean coronary resistances), % change vs before treatment (mongrel dogs; 300 μg/kg intravenous): -39%; EB max (maximum bradycardic effect), % change vs before treatment (mongrel dogs; 300 μg/kg intravenous): -7%; PA (arterial pressure), % change vs before treatment (mongrel dogs; 300 μg/kg intravenous): -9%; CBFM (coronary output), % change vs before treatment (mongrel dogs; 1000 μg/kg intravenous): +85%; CRVM (mean coronary resistances), % change vs before treatment (mongrel dogs; 1000 μg/kg intravenous): -57%; EB max (maximum bradycardic effect), % change vs before treatment (mongrel dogs; 1000 μg/kg intravenous): -13%; PA (arterial pressure), % change vs before treatment (mongrel dogs; 1000 μg/kg intravenous): -21%"
"COc1ccc(CCN(C)CCCC2(c3ccccc3)COc3ccccc32)cc1OC.O=P(O)(O)O (centres unmarked) [Example 13, 3-phenyl-3-[3-(N-(3,4-dimethoxyphenethyl)-N-methylamino)-propyl]-2,3-dihydrobenzofuran phosphate]",4,"CBFM (coronary output), % change vs before treatment (mongrel dogs; 300 μg/kg intravenous): +31%; CRVM (mean coronary resistances), % change vs before treatment (mongrel dogs; 300 μg/kg intravenous): -36%; EB max (maximum bradycardic effect), % change vs before treatment (mongrel dogs; 300 μg/kg intravenous): -8%; PA (arterial pressure), % change vs before treatment (mongrel dogs; 300 μg/kg intravenous): -16%; CBFM (coronary output), % change vs before treatment (mongrel dogs; 1000 μg/kg intravenous): +59%; CRVM (mean coronary resistances), % change vs before treatment (mongrel dogs; 1000 μg/kg intravenous): -60%; EB max (maximum bradycardic effect), % change vs before treatment (mongrel dogs; 1000 μg/kg intravenous): -10%; PA (arterial pressure), % change vs before treatment (mongrel dogs; 1000 μg/kg intravenous): -31%"
"COc1ccc2c(c1)C(CCCN(C)CCc1ccc(OC)c(OC)c1)(c1ccccc1)C(O)O2 (centres unmarked) [Example 11, 2-Hydroxy-5-methoxy-3-phenyl-3-[3-(N-(3,4-dimethoxyphenethyl)-N-methylamino)-propyl]-2,3-dihydrobenzofuran phosphate]",6.2,
"COc1ccc2c(c1)C(CCCN(C)CCc1ccc(OC)c(OC)c1)(c1ccc(C)cc1)CO2 (centres unmarked) [Example 5, 5-methoxy-3-(4-methylphenyl)-3-[3-(N-(3,4-dimethoxyphenethyl)-N-methylamino)-propyl]-2,3-dihydrobenzofuran]",26,
"c1ccc(C2(CCCN3CCOCC3)COc3ccccc32)cc1 (centres unmarked) [Example 15, 3-phenyl-3-[3-(4-morpholinyl)-propyl]-2,3-dihydrobenzofuran]",50,
"COc1ccc(CCN(C)CCCC2(c3ccccc3)COc3cc(OC)c(OC)cc32)cc1OC (centres unmarked) [Example 3, 5,6-dimethoxy-3-phenyl-3-[3-(N-(3,4-dimethoxyphenethyl)-N-methylamino)-propyl]-2,3-dihydrobenzofuran]",90,
"COc1cccc(N2CCN(CCCC3(c4ccccc4)COc4ccc(Cl)cc43)CC2)c1 (centres unmarked) [Example 2, 5-chloro-3-phenyl-3-[3-(4-(3-methoxyphenyl)-1-piperazinyl)-propyl]-2,3-dihydrobenzofuran]",10,
"COc1ccc2c(c1)C(CCCN(C)CCc1ccccc1)(c1ccccc1)CO2 (centres unmarked) [Example 8, 5-methoxy-3-phenyl-3-[3-(N-phenethyl-N-methylamino)-propyl]-2,3-dihydrobenzofuran]",8.4,
"COc1ccc(CCN(C)CCCC2(c3ccccc3)c3cc(OC)c(OC)cc3OC2O)cc1OC (centres unmarked) [Example 12, 2-hydroxy-5,6-dimethoxy-3-phenyl-3-[3-(N-(3,4-dimethoxyphenethyl)-N-methylamino)-propyl]-2,3-dihydrobenzofuran phosphate]",8,
